Results published in PMC12698182, “Bardoxolone methyl blocks the efflux of Zn^2+ by targeting hZnT1 to inhibit the proliferation and metastasis of cervical cancer” (Protein & Cell, 2025).
Positions count from the first letter of the chain named.

Experiments:
hZnT1 [1] = biological target: T1, hZnT1 (Homo sapiens, UniProt Q9Y6M5, G258A); assay: biolayer interferometry (BLI); format: binding
T1 construct: gene SLC30A1; homodimer (ECD 271-312, CTD 345-507 visible); tags and borders only in supplement; transport assay in HEK-293F cells
T1 sequence (Q9Y6M5 1-507 G258A): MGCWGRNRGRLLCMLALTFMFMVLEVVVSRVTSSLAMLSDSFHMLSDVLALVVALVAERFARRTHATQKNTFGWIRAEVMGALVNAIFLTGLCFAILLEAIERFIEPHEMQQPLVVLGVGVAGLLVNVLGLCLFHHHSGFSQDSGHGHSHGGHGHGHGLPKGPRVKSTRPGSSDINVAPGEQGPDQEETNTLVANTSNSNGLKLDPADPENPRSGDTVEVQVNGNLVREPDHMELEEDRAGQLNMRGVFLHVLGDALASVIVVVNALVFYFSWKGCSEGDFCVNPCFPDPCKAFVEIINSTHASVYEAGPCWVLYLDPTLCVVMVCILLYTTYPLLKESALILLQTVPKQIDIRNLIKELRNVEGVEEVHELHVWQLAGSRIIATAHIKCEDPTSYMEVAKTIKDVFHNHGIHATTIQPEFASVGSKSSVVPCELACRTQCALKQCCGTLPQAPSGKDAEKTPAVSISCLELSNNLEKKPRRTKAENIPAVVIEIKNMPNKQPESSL

hZnT1 [2] = biological target: T2, hZnT1 (Homo sapiens, UniProt Q9Y6M5, I96A); assay: biolayer interferometry (BLI); conditions: read-out: binding affinity
T2 construct: gene SLC30A1; homodimer (ECD 271-312, CTD 345-507 visible); tags and borders only in supplement; transport assay in HEK-293F cells
T2 sequence (Q9Y6M5 1-507 I96A): T1 sequence (Q9Y6M5 1-507 G258A) with I96A, A258G

hZnT1 [3] = biological target: T3, hZnT1 (Homo sapiens, UniProt Q9Y6M5); assay: biolayer interferometry (BLI); conditions: read-out: binding affinity
T3 construct: gene SLC30A1; homodimer (ECD 271-312, CTD 345-507 visible); tags and borders only in supplement; transport assay in HEK-293F cells
T3 sequence (Q9Y6M5 1-507): T1 sequence (Q9Y6M5 1-507 G258A) with A258G

hZnT1 [4] = biological target: T3, hZnT1; assay: FluoZin-3 fluorescence Zn2+ transport assay in HEK-293F cells; format: cell-based

## COC(=O)[C@]12CCC(C)(C)C[C@H]1[C@H]1C(=O)C=C3[C@@]4(C)C=C(C#N)C(=O)C(C)(C)[C@@H]4CC[C@@]3(C)[C@]1(C)CC2 [Bardoxolone methyl]
hZnT1 [1]
  binding affinity: the mutation of G258A directly led to the affinity to be completely undetectable
hZnT1 [2]
  Kd: 58.4 µM
hZnT1 [3]
  Kd: 2.72 µM
hZnT1 [4]
  IC50: 18 ± 0.92 µM
